Laboratory results from patent publication US6737383B1, “Herbicidal oxadiazolidines” (priority 1999, dated 2004).

How the values were obtained:
bermuda-grass = assay: Test D bermudagrass; assay type: in vivo, Cynodon dactylon; conditions: Preemergence, 0 to 100 scale
How it was run: (§1)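 Weed seeds planted in sandy loam; species kept apart in individual pots or compartments. Preemergence tests: treatment to soil surface within one day. Greenhouse growth, then visual injury scoring at 14–21 days (0–100).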

common pursiane = assay: Test D common purslane; assay type: in vivo, Portulaca oleracea; conditions: Preemergence, 0 to 100 scale
How it was run: as §1

guineagrass = assay: Test D guineagrass; assay type: in vivo, Panicum maximum; conditions: Preemergence, 0 to 100 scale
How it was run: as §1

itchgrass = assay: Test D itchgrass; assay type: in vivo, Rottboellia exaltata; conditions: Preemergence, 0 to 100 scale
How it was run: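 Scoring used a 0–100 visual injury scale, with 0 meaning no effect and 100 complete control, assessed 14–21 days after application alongside untreated pots. Preemergence treatments went onto sandy loam surfaces of separately potted seeds within a day of sowing.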

Johnson grass = assay: Test D Johnson grass; assay type: in vivo, Sorghum halepense; conditions: Preemergence, 0 to 100 scale
How it was run: as §1

large crabgrass = assay: Test D large crabgrass; assay type: in vivo, Digitaria sanguinalis; conditions: Preemergence, 0 to 100 scale
How it was run: as §1

pitted morningglory = assay: Test D pitted morningglory; assay type: in vivo, Ipomoea lacunosa; conditions: Preemergence, 0 to 100 scale
How it was run: as §1

purple nutsedge = assay: Test D purple nutsedge; assay type: in vivo, Cyperus rotundus; conditions: Preemergence, 0 to 100 scale
How it was run: as §1

sandbur = assay: Test D sandbur; assay type: in vivo, Cenchrus echinatus; conditions: Preemergence, 0 to 100 scale
How it was run: as §1

Spanishneedles = assay: Test D Spanishneedles; assay type: in vivo, Bidens bipinnata; conditions: Preemergence, 0 to 100 scale
How it was run: as §1

surinam grass = assay: Test D surinam grass; assay type: in vivo, Brachiaria decumbens; conditions: Preemergence, 0 to 100 scale
How it was run: as §1

tall mallow = assay: Test D tall mallow; assay type: in vivo, Malva sylvestris; conditions: Preemergence, 0 to 100 scale
How it was run: as §1

windgrass = assay: Test E windgrass; assay type: in vivo, Apera spica-venti; conditions: Postemergence, 0 to 100 scale
How it was run: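 For postemergence, plants at the 1- to 4-leaf stage, in a 60:40 mix of sandy loam and potting mix, treated with compound formulated in a surfactant-containing non-phytotoxic solvent. Visual assessment versus untreated controls followed roughly 21–28 days in the greenhouse.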

Green foxtail [1] = assay: Test D green foxtail; assay type: in vivo; conditions: Preemergence, 0 to 100 scale
How it was run: as §1

Green foxtail [2] = assay: Test D green foxtail; assay type: in vivo
How it was run: as §1

[3] = Rate 16 g/ha, 0 no injury, 100 complete control
[4] = Rate 32 g/ha, 0 no injury, 100 complete control
[5] = Rate 64 g/ha, 0 no injury, 100 complete control
[6] = Rate 125 g/ha, 0 no injury, 100 complete control
[7] = Rate 64 g/ha, Preemergence; 0 to 100 scale, 0 no injury, 100 complete control
[8] = Rate 125 g/ha, Preemergence; 0 to 100 scale, 0 no injury, 100 complete control

SMILES: CC(C)N(C(=O)n1oc(=O)n(C2CC2)c1=O)c1ccc(F)cc1 [Compound 242]
- Plant response rating, Bermudagrass (bermuda-grass; [3]): 80
- Plant response rating, Bermudagrass (bermuda-grass; [4]): 85
- Plant response rating, Bermudagrass (bermuda-grass; [5]): 85
- Plant response rating, Bermudagrass (bermuda-grass; [6]): 98
- Plant response rating, Bermudagrass (bermuda-grass; Rate 250 g/ha): 100
- Plant response rating, Bermudagrass (bermuda-grass; Rate 500 g/ha): 100
- Plant response rating, C. purslane (common pursiane; [3]): 0
- Plant response rating, C. purslane (common pursiane; [4]): 0
- Plant response rating, C. purslane (common pursiane; [5]): 0
- Plant response rating, C. purslane (common pursiane; [6]): 0
- Plant response rating, C. purslane (common pursiane; Rate 250 g/ha): 0
- Plant response rating, C. purslane (common pursiane; Rate 500 g/ha): 0
- Plant response rating, Guineagrass (guineagrass; [3]): 70
- Plant response rating, Guineagrass (guineagrass; [4]): 85
- Plant response rating, Guineagrass (guineagrass; [5]): 98
- Plant response rating, Guineagrass (guineagrass; [6]): 100
- Plant response rating, Guineagrass (guineagrass; Rate 250 g/ha): 100
- Plant response rating, Guineagrass (guineagrass; Rate 500 g/ha): 100
- Plant response rating, Itchgrass (itchgrass; [3]): 65
- Plant response rating, Itchgrass (itchgrass; [4]): 65
- Plant response rating, Itchgrass (itchgrass; [5]): 70
- Plant response rating, Itchgrass (itchgrass; [6]): 80
- Plant response rating, Itchgrass (itchgrass; Rate 250 g/ha): 98
- Plant response rating, Itchgrass (itchgrass; Rate 500 g/ha): 100
- Plant response rating, Johnsongrass (Johnson grass; [3]): 10
- Plant response rating, Johnsongrass (Johnson grass; [4]): 40
- Plant response rating, Johnsongrass (Johnson grass; [5]): 40
- Plant response rating, Johnsongrass (Johnson grass; [6]): 85
- Plant response rating, Johnsongrass (Johnson grass; Rate 250 g/ha): 98
- Plant response rating, Johnsongrass (Johnson grass; Rate 500 g/ha): 100
- Plant response rating, Large crabgrass (large crabgrass; [3]): 90
- Plant response rating, Large crabgrass (large crabgrass; [4]): 100
- Plant response rating, Large crabgrass (large crabgrass; [5]): 100
- Plant response rating, Large crabgrass (large crabgrass; [6]): 100
- Plant response rating, Large crabgrass (large crabgrass; Rate 250 g/ha): 100
- Plant response rating, Large crabgrass (large crabgrass; Rate 500 g/ha): 100
- Plant response rating, P. morninglory (pitted morningglory; [3]): 0
- Plant response rating, P. morninglory (pitted morningglory; [4]): 0
- Plant response rating, P. morninglory (pitted morningglory; [5]): 10
- Plant response rating, P. morninglory (pitted morningglory; [6]): 20
- Plant response rating, P. morninglory (pitted morningglory; Rate 250 g/ha): 20
- Plant response rating, P. morninglory (pitted morningglory; Rate 500 g/ha): 100
- Plant response rating, Purple nutsedge (purple nutsedge; [3]): 0
- Plant response rating, Purple nutsedge (purple nutsedge; [4]): 0
- Purple nutsedge plant response rating (purple nutsedge; [5]): 0
- Purple nutsedge plant response rating (purple nutsedge; [6]): 40
- Plant response rating, Purple nutsedge (purple nutsedge; Rate 250 g/ha): 60
- Plant response rating, Purple nutsedge (purple nutsedge; Rate 500 g/ha): 60
- Plant response rating, Sandbur (sandbur; [3]): 0
- Plant response rating, Sandbur (sandbur; [4]): 0
- Sandbur plant response rating (sandbur; [5]): 0
- Sandbur plant response rating (sandbur; [6]): 90
- Plant response rating, Sandbur (sandbur; Rate 250 g/ha): 100
- Plant response rating, Sandbur (sandbur; Rate 500 g/ha): 100
- Plant response rating, Spanishneedles (Spanishneedles; [3]): 0
- Plant response rating, Spanishneedles (Spanishneedles; [4]): 0
- Spanishneedles plant response rating (Spanishneedles; [5]): 0
- Spanishneedles plant response rating (Spanishneedles; [6]): 10
- Plant response rating, Spanishneedles (Spanishneedles; Rate 250 g/ha): 10
- Plant response rating, Spanishneedles (Spanishneedles; Rate 500 g/ha): 40
- Plant response rating, Surinam grass (surinam grass; [3]): 20
- Plant response rating, Surinam grass (surinam grass; [4]): 85
- Surinam grass plant response rating (surinam grass; [5]): 85
- Surinam grass plant response rating (surinam grass; [6]): 90
- Plant response rating, Surinam grass (surinam grass; Rate 250 g/ha): 100
- Plant response rating, Surinam grass (surinam grass; Rate 500 g/ha): 100
- Plant response rating, Tall Mallow (tall mallow; [3]): 0
- Plant response rating, Tall Mallow (tall mallow; [4]): 0
- Tall Mallow plant response rating (tall mallow; [5]): 0
- Tall Mallow plant response rating (tall mallow; [6]): 0
- Plant response rating, Tall Mallow (tall mallow; Rate 250 g/ha): 60
- Plant response rating, Tall Mallow (tall mallow; Rate 500 g/ha): 85
- Plant response rating, Windgrass (windgrass; Rate 62 g/ha): 90
- Plant response rating, Windgrass (windgrass; Rate 125 g/ha, 0 is no effect, 100 is complete control): 95
- Plant response rating, Windgrass (windgrass; Rate 500 g/ha, 0 is no effect, 100 is complete control): 95
- Plant response rating, Green foxtail (Green foxtail [1]; Rate 250 g/ha): 100
- Plant response rating, Green foxtail (Green foxtail [1]; Rate 500 g/ha): 100
- Plant response rating, Green foxtail (Green foxtail [2]; Preemergence; Rate 16 g/ha; 0 to 100 scale, 0 no injury, 100 complete control): 80
- Plant response rating, Green foxtail (Green foxtail [2]; Preemergence; Rate 32 g/ha; 0 to 100 scale, 0 no injury, 100 complete control): 100
- Plant response rating, Green foxtail (Green foxtail [2]; Rate 16 g/ha; Preemergence; 0 to 100 scale, 0 no injury, 100 complete control): 80
- Green foxtail plant response rating (Green foxtail [2]; [7]): 100
- Plant response rating, Green foxtail (Green foxtail [2]; [7]): 100
- Green foxtail plant response rating (Green foxtail [2]; [8]): 100
- Plant response rating, Green foxtail (Green foxtail [2]; [8]): 100
- Plant response rating, Green foxtail (Green foxtail [2]; Rate 250 g/ha; Preemergence; 0 to 100 scale): 100
- Plant response rating, Green foxtail (Green foxtail [2]; Rate 500 g/ha, Preemergence; 0 to 100 scale): 100
